Here are results for 15 compounds from publication PMC13600255 (Journal of the American Chemical Society, 2025).

Broadly, the IC50 is the concentration needed to halve the response being measured. One may read the Emax as the greatest response seen or fitted, relative to the assay's reference. Usually EC50 stands for the concentration that produces a half-maximal response.

“Also recorded” adds a separate entry of the source. Where two headings read alike, the source gives them in different places. Some results are limits rather than exact numbers.

The target in data set [1] is VMAT2 (Rattus norvegicus, UniProt Q01827). Briefly: [3H]5-HT release from rat brain synaptic vesicles via VMAT2. The class given is biochemical. The settings on record: for Concentration at which [3H]5-HT release exceeds Emax of 30%: rat brain synaptic vesicles; for [3H]5-HT Release % Emax via VMAT2: rat brain vesicular fraction, 5-HT control set as Emax = 100%; for Emax: read-out: [3H]5-HT Release % Emax via VMAT2.

The target of data set [2] is SERT (Rattus norvegicus, UniProt P31652). Briefly: [3H]5-HT release from rat brain synaptosomes via SERT. The settings on record: for Emax: read-out: [3H]5-HT Release % Emax via SERT. It counts as biochemical.
The target in data set [3] is hSERT (Homo sapiens, UniProt P31645). It counts as cell-based. The settings on record: for IC50: read-out: IC50, hSERT (uptake inhibition, APP+), hSERT-HEK cells, fluorescent substrate APP+, n = 4.
Data set [4] concerns the target rat SERT (rSERT) (Rattus norvegicus, UniProt P31652). Briefly: [3H]5-HT uptake inhibition in rat brain synaptosomes. The class given is biochemical. As to conditions: for IC50: rat brain synaptosomes.
Data set [5] addresses hVMAT2 (Homo sapiens, UniProt Q05940). Description: FFN206 fluorescent substrate uptake inhibition in hVMAT2-HEK cells. The class given is cell-based.
The target of data set [6] is rat VMAT2 (rVMAT2) (Rattus norvegicus, UniProt Q01827). Briefly: [3H]5-HT uptake inhibition in rat brain synaptic vesicular fraction. The class given is biochemical.
The target in data set [7] is T1, hOCT2 (Homo sapiens, UniProt O15244).
T1 sequence (O15244 1-555): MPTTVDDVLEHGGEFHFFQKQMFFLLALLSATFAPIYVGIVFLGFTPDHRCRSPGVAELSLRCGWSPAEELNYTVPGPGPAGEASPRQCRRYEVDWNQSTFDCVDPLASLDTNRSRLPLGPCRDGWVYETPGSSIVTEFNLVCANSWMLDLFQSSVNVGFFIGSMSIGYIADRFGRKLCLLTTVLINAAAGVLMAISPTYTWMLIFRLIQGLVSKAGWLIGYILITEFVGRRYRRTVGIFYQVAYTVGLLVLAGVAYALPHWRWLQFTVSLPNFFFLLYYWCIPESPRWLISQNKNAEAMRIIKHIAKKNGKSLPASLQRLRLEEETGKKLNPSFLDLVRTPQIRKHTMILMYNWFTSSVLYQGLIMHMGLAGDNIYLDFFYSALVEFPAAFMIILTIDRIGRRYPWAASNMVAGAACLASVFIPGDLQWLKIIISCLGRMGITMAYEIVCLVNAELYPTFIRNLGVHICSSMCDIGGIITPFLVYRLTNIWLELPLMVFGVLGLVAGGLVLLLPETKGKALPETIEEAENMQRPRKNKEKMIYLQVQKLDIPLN
Briefly: ASP+ fluorescent substrate uptake inhibition at OCT2. The class given is cell-based.

In data set [8] the test system is mice. Briefly: Catalepsy bar test in mice. It counts as in vivo, mouse.
Data set [9] is described as follows: Pharmacokinetics in mice, estimated free drug concentration in brain. It counts as in vivo, mouse. The settings on record: mice, 50 mg/kg, s.c.
Data set [10] relates to mice. Description: Open field locomotor activity test in mice. It counts as in vivo, mouse. The settings on record: s.c.; for Locomotor activity / sedation in open field test: dose-response.
Data set [11] has as its target mouse VMAT2 (mVMAT2) (Mus musculus, UniProt Q8BRU6). Briefly: FFN200 two-photon imaging of VMAT2 function in acute mouse brain slices. The class given is cell-based. The settings on record: 2 μM for 30 minutes, FFN200 10 μM, dorsal striatum.
Data set [12] has as its target SERT (Mus musculus, UniProt Q60857). Description: SERTlight two-photon imaging of SERT function in acute mouse brain slices. The class given is cell-based.
The test system of data set [13] is humans. The settings on record: therapeutic doses, treated for dyskinesias; cited from earlier work.
The subject of data set [14] is NET. The settings on record: read-out: EC50, NET (release); synaptosomes; cited from earlier work.
The mark [15] stands for this setting: rat brain synaptosomes, n = 3, active releaser: EC50 < 10 μM and Emax > 30%.
Where [16] appears, read: read-out: Uptake Inhibition at SERT IC50, [3H]5-HT (rSERT).
Where [17] appears, read: read-out: [3H]5-HT Uptake Inhibition IC50 ± SD, SERT, n = 3.
Where [18] appears, read: read-out: IC50, hVMAT2 (uptake inhibition, FFN206), hVMAT2-HEK cells, fluorescent substrate FFN206, n = 4.
Setting [19] is: read-out: Uptake Inhibition at VMAT2 IC50, [3H]5-HT (rVMAT2), rat brain synaptic vesicles.
Where [20] appears, read: read-out: [3H]5-HT Release EC50 ± SD via VMAT2.

hSERT, sequence (P31645 whole entry): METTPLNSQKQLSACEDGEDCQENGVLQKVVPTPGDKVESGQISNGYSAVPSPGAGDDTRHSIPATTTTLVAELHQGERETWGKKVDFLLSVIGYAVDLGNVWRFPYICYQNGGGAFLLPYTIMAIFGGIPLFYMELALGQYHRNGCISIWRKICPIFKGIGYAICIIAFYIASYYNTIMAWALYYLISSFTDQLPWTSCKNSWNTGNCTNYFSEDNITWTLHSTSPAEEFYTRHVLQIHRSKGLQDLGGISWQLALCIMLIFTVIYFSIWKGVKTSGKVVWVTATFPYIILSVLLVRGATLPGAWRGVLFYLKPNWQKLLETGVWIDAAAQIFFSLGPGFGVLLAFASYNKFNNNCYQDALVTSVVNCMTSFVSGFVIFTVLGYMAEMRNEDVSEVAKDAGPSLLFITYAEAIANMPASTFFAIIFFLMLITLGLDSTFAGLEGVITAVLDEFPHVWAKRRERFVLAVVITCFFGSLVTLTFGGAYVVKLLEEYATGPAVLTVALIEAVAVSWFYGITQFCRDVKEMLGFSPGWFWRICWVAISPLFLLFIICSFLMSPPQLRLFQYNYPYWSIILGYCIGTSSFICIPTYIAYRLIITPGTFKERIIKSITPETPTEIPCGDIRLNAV
rat SERT (rSERT), sequence (P31652 whole entry): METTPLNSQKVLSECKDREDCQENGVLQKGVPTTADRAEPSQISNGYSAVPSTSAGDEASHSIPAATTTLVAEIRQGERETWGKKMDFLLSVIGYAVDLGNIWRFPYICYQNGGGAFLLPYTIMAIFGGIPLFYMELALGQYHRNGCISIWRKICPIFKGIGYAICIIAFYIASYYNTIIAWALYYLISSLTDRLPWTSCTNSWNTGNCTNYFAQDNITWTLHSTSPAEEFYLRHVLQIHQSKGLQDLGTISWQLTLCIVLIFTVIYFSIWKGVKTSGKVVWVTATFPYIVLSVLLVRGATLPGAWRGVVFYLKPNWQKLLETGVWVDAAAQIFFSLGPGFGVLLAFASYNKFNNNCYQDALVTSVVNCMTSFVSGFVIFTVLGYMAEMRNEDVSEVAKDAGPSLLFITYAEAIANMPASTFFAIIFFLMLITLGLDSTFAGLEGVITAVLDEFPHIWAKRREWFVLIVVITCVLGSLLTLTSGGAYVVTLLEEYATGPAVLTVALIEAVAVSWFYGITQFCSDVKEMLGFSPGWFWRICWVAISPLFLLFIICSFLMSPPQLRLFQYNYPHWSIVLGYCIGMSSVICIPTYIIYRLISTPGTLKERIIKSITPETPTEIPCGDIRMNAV
SERT (Rattus norvegicus, UniProt P31652), sequence (P31652 whole entry): as above
SERT (Mus musculus, UniProt Q60857), sequence (Q60857 whole entry): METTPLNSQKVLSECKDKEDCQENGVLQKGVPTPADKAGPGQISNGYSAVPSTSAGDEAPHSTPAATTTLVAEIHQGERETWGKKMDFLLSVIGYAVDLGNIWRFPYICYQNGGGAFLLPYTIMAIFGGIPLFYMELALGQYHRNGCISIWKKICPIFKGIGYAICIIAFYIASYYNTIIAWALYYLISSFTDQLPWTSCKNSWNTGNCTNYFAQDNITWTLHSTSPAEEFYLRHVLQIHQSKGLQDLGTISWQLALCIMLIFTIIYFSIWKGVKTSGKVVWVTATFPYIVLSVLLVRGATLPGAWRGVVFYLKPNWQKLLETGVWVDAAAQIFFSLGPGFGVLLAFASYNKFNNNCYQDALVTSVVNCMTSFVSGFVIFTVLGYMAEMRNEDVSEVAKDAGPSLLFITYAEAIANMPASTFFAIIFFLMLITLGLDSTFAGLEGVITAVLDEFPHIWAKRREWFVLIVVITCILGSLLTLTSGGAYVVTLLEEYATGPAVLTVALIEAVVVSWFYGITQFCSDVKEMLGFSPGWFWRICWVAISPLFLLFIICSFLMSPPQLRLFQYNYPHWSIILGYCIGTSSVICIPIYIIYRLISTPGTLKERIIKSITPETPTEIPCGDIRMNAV
mouse VMAT2 (mVMAT2), sequence (Q8BRU6 whole entry): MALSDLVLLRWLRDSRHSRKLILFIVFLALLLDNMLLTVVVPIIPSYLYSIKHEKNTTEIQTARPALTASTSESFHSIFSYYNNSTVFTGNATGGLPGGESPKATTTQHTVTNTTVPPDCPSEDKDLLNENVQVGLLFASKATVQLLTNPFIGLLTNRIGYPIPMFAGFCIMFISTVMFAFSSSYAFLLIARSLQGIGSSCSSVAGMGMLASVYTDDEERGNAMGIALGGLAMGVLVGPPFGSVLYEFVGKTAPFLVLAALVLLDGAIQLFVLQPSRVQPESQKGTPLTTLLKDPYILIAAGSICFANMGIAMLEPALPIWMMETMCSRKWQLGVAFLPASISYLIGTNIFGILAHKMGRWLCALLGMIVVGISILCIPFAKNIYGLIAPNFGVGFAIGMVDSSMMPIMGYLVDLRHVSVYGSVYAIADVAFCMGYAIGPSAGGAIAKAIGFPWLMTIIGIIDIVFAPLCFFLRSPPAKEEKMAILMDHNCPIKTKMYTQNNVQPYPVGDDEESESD
rat VMAT2 (rVMAT2), sequence (Q01827 whole entry): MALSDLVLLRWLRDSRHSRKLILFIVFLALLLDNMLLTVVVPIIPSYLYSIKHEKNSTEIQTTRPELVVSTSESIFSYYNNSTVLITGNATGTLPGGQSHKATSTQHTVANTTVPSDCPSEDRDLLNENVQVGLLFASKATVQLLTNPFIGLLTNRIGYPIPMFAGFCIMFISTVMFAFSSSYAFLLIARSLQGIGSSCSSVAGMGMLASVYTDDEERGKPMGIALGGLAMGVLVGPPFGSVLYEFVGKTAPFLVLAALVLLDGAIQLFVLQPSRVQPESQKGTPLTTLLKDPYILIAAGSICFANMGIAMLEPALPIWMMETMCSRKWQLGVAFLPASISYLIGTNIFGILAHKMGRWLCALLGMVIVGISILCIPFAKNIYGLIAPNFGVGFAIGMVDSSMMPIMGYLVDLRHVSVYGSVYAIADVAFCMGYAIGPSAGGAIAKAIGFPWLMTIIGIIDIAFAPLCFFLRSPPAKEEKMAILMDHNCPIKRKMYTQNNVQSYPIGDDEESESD
VMAT2, sequence (Q01827 whole entry): as above
hVMAT2, sequence (Q05940 whole entry): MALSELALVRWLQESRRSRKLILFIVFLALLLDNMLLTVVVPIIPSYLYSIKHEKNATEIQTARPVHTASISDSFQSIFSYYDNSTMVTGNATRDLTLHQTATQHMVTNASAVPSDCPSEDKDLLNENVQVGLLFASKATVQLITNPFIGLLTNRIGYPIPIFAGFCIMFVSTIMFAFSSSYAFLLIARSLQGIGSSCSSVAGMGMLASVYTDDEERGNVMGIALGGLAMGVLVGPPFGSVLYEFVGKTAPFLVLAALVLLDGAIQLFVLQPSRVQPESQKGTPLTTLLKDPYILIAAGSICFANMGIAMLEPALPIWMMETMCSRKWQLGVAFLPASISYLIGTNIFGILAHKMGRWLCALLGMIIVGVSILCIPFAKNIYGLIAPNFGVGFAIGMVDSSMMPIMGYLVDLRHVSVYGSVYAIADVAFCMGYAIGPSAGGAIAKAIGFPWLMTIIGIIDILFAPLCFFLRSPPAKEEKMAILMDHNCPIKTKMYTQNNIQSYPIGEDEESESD

As to N-methyl-5-cyano-ibogamine, the “Concentration at which [3H]5-HT release exceeds Emax of 30%” value (“Concentration at which … of 30%” for short) in [1] was greater than 10 µM. Moreover, the “[3H]5-HT Release % Emax via VMAT2” value in [1] is less than 30%. Moreover, in data set [2] (rat brain synaptosomes, n = 3), the “[3H]5-HT Release % Emax via SERT” value is recorded as less than 30%. Besides, the “[3H]5-HT Release EC50 ± SD via SERT” value in data set [2] (setting [15]) was “inactive”. The IC50 in [3] is 5 nM; in [4] (setting [16]), 10 nM; in data set [4] (setting [17]) it was 9.8 ± 0.8 nM; in data set [5] (setting [18]), 440 nM; in data set [6] (setting [19]), 1320 nM.

Turning to `CC(N)Cc1ccccc1` (stereo not shown) [amphetamine, reference compound], the Emax is 98% in [1] and 91% in data set [2]. Further, the “[3H]5-HT release from preloaded synaptosomes (qualitative)” value in data set [2] (rat brain synaptosomes) was “robust [^3H]5-HT release”.

Regarding `CN(C)CCCN1c2ccccc2CCc2ccccc21` [imipramine, reference compound], the “Selectivity for SERT over VMAT2” value in [3] is on record as greater than 100 fold.

Take `CC[C@H]1C[C@@H]2C[C@H]3c4c(c5cc(OC)ccc5n4C)CCN(C2)[C@@H]13` [N-methyl-ibogaine]: the half-inhibitory concentration (IC50) in [7] (read-out: IC50, hOCT2, ASP+ fluorescent substrate) was determined as 2300 nM.

For the compound `COC(=O)[C@H]1[C@H]2C[C@@H]3c4[nH]c5cc(OC)ccc5c4CCN3C[C@H]2C[C@@H](OC(=O)c2cc(OC)c(OC)c(OC)c2)[C@@H]1OC` [reserpine, reference compound], in data set [1], the Emax was less than 30%.

In the case of `CCC1CC2CC3c4c(c5cc(O)ccc5n4C)CCN(C2)C13` (stereo not shown) [N-methyl-noribogaine], in [1], the “[3H]5-HT Release % Emax via VMAT2” value amounted to 32%. Further, the EC50 in [1] (setting [20]) came to 219 ± 36 nM. Besides, the “[3H]5-HT Release % Emax via SERT” value in [2] (rat brain synaptosomes, n = 3) is less than 30%. In [2] (setting [15]), the “[3H]5-HT Release EC50 ± SD via SERT” value was “inactive”. Also, the IC50 stood at 59 nM in [3]; 14 nM in data set [4] (setting [16]); 13.6 ± 1.2 nM in data set [4] (setting [17]); 170 nM in data set [5] (setting [18]); 239 nM in [6] (setting [19]).

As for `NCCc1c[nH]c2ccc(O)cc12` [serotonin (5-HT), serotonin, reference compound], in data set [1], it took 585 ± 129 nM to reach a half-maximal effect (EC50) and the maximal effect (Emax) was 113%.

Take `CCC1CC2CC3c4c(c5cc(O)ccc5n4CC)CCN(C2)C13` (stereo not shown) [N-ethyl-noribogaine]: the “[3H]5-HT Release % Emax via VMAT2” value in [1] came to 31%. The EC50 in [1] (setting [20]) stood at 711 ± 254 nM. Further, the “[3H]5-HT Release % Emax via SERT” value in [2] (rat brain synaptosomes, n = 3) was less than 30%. Besides, the “[3H]5-HT Release EC50 ± SD via SERT” value in data set [2] (setting [15]) was “inactive”. The “Catalepsy in bar test” value is recorded as “catalepsy was induced” in data set [8] (mice, 50 mg/kg, s.c., 60-minute mark); “induces catalepsy” in data set [8] (mice, s.c., dose-response); “lack of catalepsy; also recorded: did not induce catalepsy” in data set [8] (mouse, in vivo). Further, the concentration for half-maximal inhibition (IC50) in [3] was 1860 nM; in [4] (setting [16]), 80 nM; in [4] (setting [17]), 80.1 ± 7.2 nM; in data set [5] (setting [18]), 70 nM; in data set [6] (setting [19]), 54 nM. Moreover, the “Potency in synaptosomes ([3H]5-HT, rSERT) relative to transfected cells (hSERT)” value in data set [4] was “more than 20 fold”. Besides, in [9], the “Cmax, estimated free drug in the brain” value is 11 µM. Besides, in data set [10] (30 mg/kg), the “Locomotion in open field test” value is “completely suppressed locomotion”. Besides, the “Locomotor activity / sedation in open field test” value in data set [10] is recorded as “suppresses locomotor activity”.

As for `CCC1CC2CC3c4oc5ccc(O)cc5c4CCN(C2)C13` (stereo not shown) [oxa-noribogaine], the concentration for half-maximal inhibition (IC50) in [3] turned out to be 900 nM; in [5] (setting [18]), 670 nM.

`CC[C@H]1C[C@@H]2C[C@H]3c4[nH]c5ccc(C#N)cc5c4CCN(C2)[C@@H]13` [5-cyano-ibogamine]: the “Concentration at which … of 30%” value in [1] was greater than 10 µM. Further, the “[3H]5-HT Release % Emax via VMAT2” value in data set [1] is reported as less than 30%. The “[3H]5-HT Release % Emax via SERT” value in [2] (rat brain synaptosomes, n = 3) is less than 30%. In addition, the “[3H]5-HT Release EC50 ± SD via SERT” value in data set [2] (setting [15]) was “inactive”. Also, the concentration for half-maximal inhibition (IC50) in data set [3] stood at 26 nM; in data set [4] (setting [16]), 65 nM; in data set [4] (setting [17]) it was 65.2 ± 5.4 nM; in data set [5] (setting [18]), 3340 nM; in [6] (setting [19]) it was 9620 nM. The “Effect on FFN200 uptake / punctate labeling” value in [11] was “no inhibitory effects; also recorded: had no effect on labeling pattern”. Moreover, the “Effect on SERTlight labeling of 5-HT axons” value was “Marked labeling inhibition; also recorded: marked suppression of SERTlight fluorescent labeling” in data set [12] (0.2 μM (200 nM), dorsal striatum) and “ablated SERTlight probe uptake; also recorded: fully inhibited SERTlight label” in data set [12] (2 μM for 30 minutes, SERTlight 10 μM, SNpr, DS, SSp2/3).

For the compound `CC[C@H]1C[C@@H]2C[C@H]3c4[nH]c5ccccc5c4CCN(C2)[C@@H]13` [ibogamine], the IC50 in data set [7] was 2000 nM; in [4] (Uptake Inhibition at SERT IC50, [3H]5-HT (rSERT)), 554 nM; in data set [4] ([3H]5-HT Uptake Inhibition IC50 ± SD, SERT, n = 3) it was 554 ± 49 nM; in [5] it was 3010 nM; in data set [6], greater than 10000 nM. Besides, the “[3H]5-HT Release EC50 ± SD via VMAT2” value in [1] was “inactive”. In addition, the “Concentration at which … of 30%” value in data set [1] is greater than 10 µM. In addition, the Emax in data set [1] and in data set [2] was less than 30% each time. Moreover, in data set [2], the “[3H]5-HT Release EC50 ± SD via SERT” value was “inactive”. Moreover, in [2] (rat brain synaptosomes), the “[3H]5-HT release from preloaded synaptosomes (qualitative)” value was “No [^3H]5-HT release was observed”.

With `CCOc1ccc2[nH]c3c(c2c1)CCN1CC2CC(CC)C1C3C2` (stereo not shown) [5-ethoxyibogamine], the results for the IC50 in data set [3] and in data set [5] (setting [18]) were 9030 nM and 80 nM, respectively. Also, the “Selectivity hVMAT2 over hSERT” value in data set [5] (ratio of IC50 values, cell-based fluorometry) was “more than 100 fold”.

Take `COc1cc2c(cc1OC)C1CC(=O)C(CC(C)C)CN1CC2` (stereo not shown) [tetrabenazine (TBZ), tetrabenazine, reference compound]: the maximum response (Emax) in [1] was less than 30%. Moreover, the “Catalepsy in bar test” value in [8] (mice, s.c., dose-response) is given as “catalepsy in the bar test in a dose-dependent manner; also recorded: catalepsy can be readily induced”. The “Parkinsonism as an adverse effect, share of subjects” value in data set [13] is given as 15–24%. Besides, the “Locomotor activity / sedation in open field test” value in data set [10] is given as “diminished locomotor activity; also recorded: sedation in the open field test”.

Consider `C[C@H](N)Cc1ccccc1` [S-amphetamine], for which the EC50 in data set [14] was […].

For `COc1cc2c(cc1OC)[C@H]1C[C@@H](O)[C@H](CC(C)C)CN1CC2` [DTBZ, dihydrotetrabenazine, reference compound], the “Effect on FFN200 uptake / punctate labeling” value in data set [11] was “attenuated; also recorded: inhibited the labeling pattern”.
